According to PubChem BioAssay (NCI):
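Five concentrations, 48 hours, 96-well plates. The concentration for 50% growth inhibition is given as GI50. At the TGI there is no net growth.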

Legend:
Assay in all cases: inhibition of tumour cell growth, NCI panel, 48 h
SK-OV-3 ovarian = tested on: SK-OV-3 ovarian
OVCAR-3 ovarian = tested on: OVCAR-3 ovarian
SK-MEL-28 melanoma = tested on: SK-MEL-28 melanoma
SK-MEL-2 melanoma = tested on: SK-MEL-2 melanoma
DU-145 prostate = tested on: DU-145 prostate
NCI-H226 lung = tested on: NCI-H226 lung
ACHN renal = tested on: ACHN renal
IGROV1 ovarian = tested on: IGROV1 ovarian
NCI-H522 lung = tested on: NCI-H522 lung
M14 melanoma = tested on: M14 melanoma

| Compound | GI50 (SK-OV-3 ovarian) [µM] | TGI (SK-OV-3 ovarian) [µM] | GI50 (OVCAR-3 ovarian) [µM] | TGI (OVCAR-3 ovarian) [µM] | GI50 (SK-MEL-28 melanoma) [µM] | TGI (SK-MEL-28 melanoma) [µM] | GI50 (SK-MEL-2 melanoma) [µM] | TGI (SK-MEL-2 melanoma) [µM] | GI50 (DU-145 prostate) [µM] | TGI (DU-145 prostate) [µM] | GI50 (NCI-H226 lung) [µM] | TGI (NCI-H226 lung) [µM] | GI50 (ACHN renal) [µM] | TGI (ACHN renal) [µM] | GI50 (IGROV1 ovarian) [µM] | TGI (IGROV1 ovarian) [µM] | GI50 (NCI-H522 lung) [µM] | TGI (NCI-H522 lung) [µM] | GI50 (M14 melanoma) [µM] | TGI (M14 melanoma) [µM] |
| --- | --- | --- | --- | --- | --- | --- | --- | --- | --- | --- | --- | --- | --- | --- | --- | --- | --- | --- | --- | --- |
| COc1cc2c3c(n(CCCNCCCNCCN)c(=O)c2cc1OC)-c1cc2c(cc1C3=O)OCO2 | > 100 | > 100 | 19.5 | 53.5 | 48.5 | > 100 | > 100 | > 100 | 51.9 | > 100 | 79.4 | > 100 | 18.7 | 57.1 | 32.3 | > 100 | 15.3 | 85.1 | 53.9 | > 100 |
| COC1C=COC2(C)Oc3c(C)c(O)c4c(O)c(c(C5SCCS5)c(O)c4c3C2=O)NC(=O)/C(C)=C\C=CC(C)C(O)C(C)C(O)C(C)C(OC(C)=O)C1C (stereo not given) | – | 27.7 | – | 20.4 | – | 20.8 | – | 24.6 | – | 13.1 | – | 21.8 | – | 10.7 | – | 22.4 | – | 24.2 | – | 27.5 |
| CC(=O)Nc1ccc(S(=O)(=O)N=S(C)C)cc1 | – | > 100 | – | > 100 | – | > 100 | – | > 100 | – | > 100 | – | > 100 | – | > 100 | – | > 100 | – | > 100 | – | > 100 |
| Fc1ccc(-c2nn3ccccc3c2-c2ccncc2)cc1 | > 25 | > 25 | > 25 | > 25 | > 25 | > 25 | > 25 | > 25 | > 25 | > 25 | > 25 | > 25 | 12.1 | > 25 | 12.9 | > 25 | > 19.8 | > 25 | > 25 | > 25 |
| Cn1c(=O)c(Oc2ccc(F)cc2F)cc2cnc(N[C@@H]3CCOC3)nc21 | > 25 | > 25 | > 25 | > 25 | > 25 | > 25 | > 25 | > 25 | > 25 | > 25 | > 25 | > 25 | > 25 | > 25 | > 25 | > 25 | > 25 | > 25 | > 25 | > 25 |
| COc1ccc(-c2cn(-c3ccc(OC)c(OC)c3)c(=O)[nH]2)cc1 | > 100 | > 100 | > 100 | > 100 | > 100 | > 100 | > 100 | > 100 | > 100 | > 100 | > 100 | > 100 | > 100 | > 100 | > 100 | > 100 | > 100 | > 100 | > 100 | > 100 |
| [N-]=[N+]=NCCCn1c2c(c3ccc([N+](=O)[O-])cc3c1=O)C(=O)c1cc(-c3ccccc3)ccc1-2 | > 100 | > 100 | > 100 | > 100 | > 100 | > 100 | > 100 | > 100 | > 100 | > 100 | > 100 | > 100 | > 100 | > 100 | > 100 | > 100 | > 100 | > 100 | > 100 | > 100 |
| Nc1ncc(-c2ccc3ncnc(N4CCc5ccc(Cl)cc54)c3c2)cc1C(F)(F)F | 1.3 | 7.04 | 1.05 | 15.1 | 2.01 | 13.9 | 5.12 | 23.5 | 1.43 | 18.2 | 3.04 | 24.1 | 0.569 | 13.2 | 0.188 | 0.964 | 1.76 | 17.9 | 4.63 | 26 |
| O=C(/C=C/c1ccccn1)c1ccc(OCc2nnc(-c3ccc(Cl)cc3)o2)cc1 | 3.82 | 10.4 | 1.73 | 3.25 | 1.77 | 3.36 | 3.29 | 8.61 | 1.62 | 3.02 | 2.69 | 7.79 | 1.66 | 3.11 | 1.96 | 3.62 | 1.89 | 3.94 | 1.99 | 3.87 |
| O=C(c1ccc([N+](=O)[O-])cc1)C(Br)C(Br)c1ccnc2ccccc12 (stereo not given) | – | 32.1 | – | 23.1 | – | 30.8 | – | 26.4 | – | 24.4 | – | 33.6 | – | 17 | – | 30 | – | 6.32 | – | 9.81 |
| O=C1Nc2ccccc2/C1=C\c1nc(-c2ccccc2F)n2ccccc12 | 3.46 | 12.4 | 1.9 | 4.38 | 3.71 | 14.6 | 6.81 | 19.6 | 3.26 | 12.9 | 4.78 | 21.3 | 3.3 | 10.9 | 2.04 | 12.5 | 2.18 | 7.37 | 5.65 | 17.9 |
